Structures can show the parent of a compound that is named as a salt.
Test: TAF stability in excipients (chromatographic purity by HPLC)
Type: physicochemical
Conditions: excess TAF dissolved in excipient at 37° C., quantified by HPLC
Protocol: Excipients on the FDA GRAS list of acceptable compounds were evaluated for TAF stability and short-duration TAF release. Devices containing TAF in combination with selected GRAS excipients were evaluated in prototype devices 60 days, presented in FIG. 8. […] Tocopherol was not chosen because of the high release rate of TAF near 3.5 mg/day.

CC(C)OC(=O)[C@H](C)N[P@](=O)(CO[C@H](C)Cn1cnc2c(N)ncnc21)Oc1ccccc1 [TAF std., Tenofovir Alafenamide Fumarate]
Chromatographic Purity: 99.88%
